# According to US8455440B2, “Combination anticoagulant therapy with a compound that acts as a factor Xa inhibitor” (Millennium Pharmaceuticals, Inc., priority 2007, dated 2013):
# Where “and” joins values, the source holds several entries; their conditions need not be identical. Equal entries are not always repeated. Marks after values point to notes of the source that are not given here.
# Experiments:
# human whole blood = test: Real time perfusion chamber: whole blood perfused over collagen and tissue factor coated surface; format: cell-based; conditions: shear rate 300 s^−1, five donors
# Procedure: After the perfusion, the thrombotic activity was quantified by measurement of labeled fibrin produced as a result of fibrinogen cleavage during the activation of platelets and the blood coagulation system. For this series of experiments in five healthy human volunteers, blood was obtained by venipuncture and treated with 2.4 μM eptifibatide. The dose of eptifibatide corresponds to the plasma concentration attained by therapeutic concentrations of the GPIIb/IIIa inhibitor.
# p-glycoprotein = p-glycoprotein (Homo sapiens, UniProt P08183); test: In vitro evaluations of p-glycoprotein substrate; format: in vitro ADME
# p-glycoprotein, sequence (P08183 whole entry): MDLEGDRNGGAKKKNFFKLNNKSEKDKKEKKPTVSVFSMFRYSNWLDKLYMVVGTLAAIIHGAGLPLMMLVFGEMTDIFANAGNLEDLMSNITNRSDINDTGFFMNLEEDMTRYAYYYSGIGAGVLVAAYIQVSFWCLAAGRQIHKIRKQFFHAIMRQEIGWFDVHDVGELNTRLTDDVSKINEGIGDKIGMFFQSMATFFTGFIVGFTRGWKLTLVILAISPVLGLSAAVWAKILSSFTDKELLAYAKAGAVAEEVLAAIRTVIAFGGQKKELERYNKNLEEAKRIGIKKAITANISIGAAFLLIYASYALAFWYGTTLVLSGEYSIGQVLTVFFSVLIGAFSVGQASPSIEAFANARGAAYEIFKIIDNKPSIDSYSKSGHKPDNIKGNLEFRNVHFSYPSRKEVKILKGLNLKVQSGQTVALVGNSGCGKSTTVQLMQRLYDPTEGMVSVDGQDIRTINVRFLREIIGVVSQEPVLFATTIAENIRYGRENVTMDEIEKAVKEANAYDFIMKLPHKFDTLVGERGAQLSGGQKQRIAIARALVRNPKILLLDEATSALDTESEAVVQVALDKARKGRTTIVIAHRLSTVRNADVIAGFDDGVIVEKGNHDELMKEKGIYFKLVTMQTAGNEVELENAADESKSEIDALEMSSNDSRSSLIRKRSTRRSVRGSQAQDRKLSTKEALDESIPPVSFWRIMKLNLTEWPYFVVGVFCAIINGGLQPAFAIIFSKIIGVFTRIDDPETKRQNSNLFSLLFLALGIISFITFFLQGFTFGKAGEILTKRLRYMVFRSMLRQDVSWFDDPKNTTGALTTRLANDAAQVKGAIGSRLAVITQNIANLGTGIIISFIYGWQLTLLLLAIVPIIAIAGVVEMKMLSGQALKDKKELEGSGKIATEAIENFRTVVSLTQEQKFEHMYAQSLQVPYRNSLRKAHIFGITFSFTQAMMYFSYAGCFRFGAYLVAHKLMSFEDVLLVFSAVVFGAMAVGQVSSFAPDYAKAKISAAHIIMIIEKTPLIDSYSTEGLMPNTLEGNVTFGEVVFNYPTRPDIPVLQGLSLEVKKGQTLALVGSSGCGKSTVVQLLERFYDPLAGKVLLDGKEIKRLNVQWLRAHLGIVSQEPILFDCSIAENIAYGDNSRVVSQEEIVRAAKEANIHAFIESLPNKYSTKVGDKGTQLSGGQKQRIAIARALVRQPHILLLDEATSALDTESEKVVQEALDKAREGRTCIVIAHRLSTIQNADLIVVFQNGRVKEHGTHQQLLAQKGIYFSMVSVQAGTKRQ
# Rhesus Monkeys = test: Template bleed times in rhesus monkeys; format: in vivo, rhesus monkey; conditions: for Template Bleed Times / Template Bleed Times, Mean of all times / Template Bleed Times, Mean per animal / Template Bleed Times, Mean for time points 1-24 hr (post-Compound A dosing): in min (unit assumed); for Template Bleed Times, Mean of animals: mean of two animals; for Template Bleed Times, Mean of all times: all times (0-24 hr)
# Excerpt: Injectable heparins are often dose limited by their bleeding consequences which result in a narrow therapeutic window for treatment effects.
smiles,measurement,setting,value
"COc1ccc(NC(=O)c2ccc(C(=N)N(C)C)cc2)c(C(=O)Nc2ccc(Cl)cn2)c1 [Compound A, [2-({4-[(dimethylamino)iminomethyl]phenyl}carbonylamino)-5-methoxyphenyl]-N-(5-chloro(2-pyridyl))carboxamide]",Mean Fluorescence,human whole blood; 10 nM Compound A + 2.4 μM eptifibatide,107.7
same,Mean Fluorescence,human whole blood; 25 nM Compound A + 2.4 μM eptifibatide,85.0
same,Mean Fluorescence,human whole blood; 50 nM Compound A + 2.4 μM eptifibatide,64.5
same,Mean Fluorescence,human whole blood; 75 nM Compound A + 2.4 μM eptifibatide,34.7
same,Mean Fluorescence,human whole blood; 100 nM Compound A + 2.4 μM eptifibatide,33.0
same,p-glycoprotein substrate,p-glycoprotein,substrate of p-glycoprotein
same,Template Bleed Times,"Rhesus Monkeys; 4.0 mg/kg, 1 hr, individual animals (Rhesus # 30675, 30973)",1.50 and 3.75
same,"Template Bleed Times, Mean of animals","Rhesus Monkeys; 4.0 mg/kg, 1 hr",2.63 min
same,Template Bleed Times,"Rhesus Monkeys; 4.0 mg/kg, 2 hr, individual animals (Rhesus # 30675, 30973)",1.50
same,"Template Bleed Times, Mean of animals","Rhesus Monkeys; 4.0 mg/kg, 2 hr",1.5 min
same,Template Bleed Times,"Rhesus Monkeys; 4.0 mg/kg, 3 hr, individual animals (Rhesus # 30675, 30973)",1.50
same,"Template Bleed Times, Mean of animals","Rhesus Monkeys; 4.0 mg/kg, 3 hr",1.5 min
same,Template Bleed Times,"Rhesus Monkeys; 4.0 mg/kg, 8 hr, individual animals (Rhesus # 30675, 30973)",2.00
same,"Template Bleed Times, Mean of animals","Rhesus Monkeys; 4.0 mg/kg, 8 hr",2 min
same,Template Bleed Times,"Rhesus Monkeys; 4.0 mg/kg, 24 hr, individual animals (Rhesus # 30675, 30973)",2.50
same,"Template Bleed Times, Mean of animals","Rhesus Monkeys; 4.0 mg/kg, 24 hr",2.5 min
same,"Template Bleed Times, Mean of all times",Rhesus Monkeys; 4.0 mg/kg,1.98*
same,"Template Bleed Times, Mean per animal","Rhesus Monkeys; 4.0 mg/kg, mean over time points of each animal (Rhesus # 30675, 30973)",1.80 and 2.25
same,"Template Bleed Times, Mean for time points 1-24 hr (post-Compound A dosing)",Rhesus Monkeys; 4.0 mg/kg,2.03**
same,Template Bleed Times,"Rhesus Monkeys; 7.5 mg/kg, 1 hr, individual animals (Rhesus # 25285, 27678)",3.00 and 2.00
same,"Template Bleed Times, Mean of animals","Rhesus Monkeys; 7.5 mg/kg, 1 hr",2.5 min
same,Template Bleed Times,"Rhesus Monkeys; 7.5 mg/kg, 2 hr, individual animals (Rhesus # 25285, 27678)",2.50 and 1.75
same,"Template Bleed Times, Mean of animals","Rhesus Monkeys; 7.5 mg/kg, 2 hr",2.13 min
same,Template Bleed Times,"Rhesus Monkeys; 7.5 mg/kg, 3 hr, individual animals (Rhesus # 25285, 27678)",2.50 and 2.00
same,"Template Bleed Times, Mean of animals","Rhesus Monkeys; 7.5 mg/kg, 3 hr",2.25 min
same,Template Bleed Times,"Rhesus Monkeys; 7.5 mg/kg, 8 hr, individual animals (Rhesus # 25285, 27678)",4.00 and 2.50
same,"Template Bleed Times, Mean of animals","Rhesus Monkeys; 7.5 mg/kg, 8 hr",3.25 min
same,Template Bleed Times,"Rhesus Monkeys; 7.5 mg/kg, 24 hr, individual animals (Rhesus # 25285, 27678)",2.50
same,"Template Bleed Times, Mean of animals","Rhesus Monkeys; 7.5 mg/kg, 24 hr",2.5 min
same,"Template Bleed Times, Mean of all times",Rhesus Monkeys; 7.5 mg/kg,2.50*
same,"Template Bleed Times, Mean per animal","Rhesus Monkeys; 7.5 mg/kg, mean over time points of each animal (Rhesus # 25285, 27678)",2.90 and 2.15
same,"Template Bleed Times, Mean for time points 1-24 hr (post-Compound A dosing)",Rhesus Monkeys; 7.5 mg/kg,2.53**
same,bleeding times,Rhesus Monkeys; supra-therapeutic doses (7 to 35 times greater than the 0.21 mg/kg to 0.57 mg/kg human therapeutic doses),did not extend of bleeding times
same,bleeding time in monkeys,"Rhesus Monkeys; therapeutic levels, plasma concentrations between 5 to 25 ng/mL",did not cause extension of bleeding
